The source made the active and inactive calls. No cut-off for these calls is given here.
Tests used:
[1] = tested on: Escherichia coli; assay: Drug resistance, ratio of MIC for penicillin-susceptible Escherichia coli ATCC25922 incubated for 18 to 24 hrs and measured after 4 passages to MIC for penicillin-susceptible Escherichia coli ATCC25922 measured after 18 to 24 hrs; assay type: functional
[2] = tested on: Staphylococcus aureus; assay: Inhibition of biofilm formation in methicillin-resistant Staphylococcus aureus ATCC43300 assessed as decrease in biofilm formation rate at 16 times of MIC incubated for 24 hrs by crystal violet staining based analysis relative to control; assay type: functional; parameters: scale not given: the % may be the effect or the level left
[3] = tested on: Cell membrane; assay: Disruption of cell membrane integrity in penicillin-susceptible Escherichia coli ATCC25922 assessed as appearance of wrecked cells at 4 times of MIC incubated for 2 hrs by transmission electron microscopic analysis; assay type: cell membranes
[4] = tested on: Cell membrane; assay: Disruption of cell membrane integrity in penicillin-susceptible Escherichia coli ATCC25922 assessed as scattered leakage of content at 4 times of MIC incubated for 2 hrs by transmission electron microscopic analysis; assay type: cell membranes
[5] = tested on: Staphylococcus aureus; assay: Inhibition of biofilm formation in methicillin-resistant Staphylococcus aureus ATCC43300 assessed as decrease in biofilm formation rate at 6.25 microg/ml incubated for 24 hrs by crystal violet staining based analysis relative to control; assay type: functional; parameters: scale not given: the % may be the effect or the level left; conditions: dose 6.25 µg/ml
[6] = tested on: Escherichia coli; assay: Antibacterial activity against penicillin-susceptible Escherichia coli ATCC25922 assessed as log reduction in bacterial count by time kill kinetics assay; assay type: functional
[7] = tested on: Staphylococcus aureus; assay: Inhibition of biofilm formation in methicillin-resistant Staphylococcus aureus ATCC43300 assessed as decrease in biofilm formation rate at higher concentration incubated for 24 hrs by crystal violet staining based analysis relative to control; assay type: functional; parameters: scale not given: the % may be the effect or the level left
[8] = tested on: Cell membrane; assay: Disruption of cell membrane integrity in methicillin-resistant Staphylococcus aureus ATCC43300 assessed as increase in cellular debris at 4 times of MIC incubated for 2 hrs by transmission electron microscopic analysis; assay type: cell membranes
[9] = tested on: Staphylococcus aureus; assay: Inhibition of biofilm formation in methicillin-resistant Staphylococcus aureus ATCC43300 assessed as decrease in biofilm formation rate at 4 times of MIC incubated for 24 hrs by crystal violet staining based analysis relative to control; assay type: functional; parameters: scale not given: the % may be the effect or the level left
[10] = tested on: Cell membrane; assay: Disruption of cell membrane integrity in methicillin-resistant Staphylococcus aureus ATCC43300 assessed as cell wall disruption at 4 times of MIC incubated for 2 hrs by transmission electron microscopic analysis; assay type: cell membranes
[11] = tested on: Escherichia coli; assay: Antibacterial activity against penicillin-susceptible Escherichia coli ATCC25922 assessed as log reduction in bacterial count at 2 times of MIC measured after 12 hrs by time kill kinetics assay; assay type: functional, organism-based
[12] = Cytotoxicity against mouse RAW264.7 cells assessed as cell viability at 3.125 microg/ml incubated for 24 hrs by CCK8 assay relative to control; assay type: toxicity, cell-based; conditions: dose 3.125 µg/ml, read-out: Activity

O=C1c2ccccc2-[n+]2ccc3c([nH]c4ccc(-c5ccccc5F)cc43)c21.[Cl-]
Ratio [1]: 12 | Activity [2]: 12%

O=C1c2ccccc2-[n+]2ccc3c([nH]c4ccc(-c5ccccc5Cl)cc43)c21.[Cl-]
Activity [3]: Active | Activity [4]: Active | Activity [5]: 49% | Activity [6]: 1 log10CFU/ml | Activity [7]: 15%

O=C1c2ccccc2-[n+]2ccc3c([nH]c4ccc(-c5ccccc5C(F)(F)F)cc43)c21.[Cl-]
Activity [8]: Active | Activity [9]: 18% | Activity [10]: Active | Activity [11]: inactive | viability at 24 h, 3.125 microg/ml [12]: 81%

— ChEMBL document CHEMBL5500342, “Rational molecular design converting fascaplysin derivatives to potent broad-spectrum inhibitors against bacterial pathogens via targeting FtsZ” (Eur J Med Chem, 2024)
